Reference: US7282556B2, “Polynucleotides and polypeptides relating to the modulation of SIRPα-CD47” (Emory University, priority 2001, dated 2007)
In brackets after ≈: the same amount, converted by molar mass. Where a SMILES comes first, the peptide text is derived from it. Bridges are numbered along the chain shown (N, C = ends).

Experiments:
[1] = Solubility of synthesized peptides in aqueous phase; format: physicochemical; details: for solubility: in aqueous phase
[2] = biological target: T1, CD47-SIRPα1 binding (CD47-AP / SIRPα1-GST) (Homo sapiens, UniProt P78324); assay: CD47-AP binding to immobilized SIRPα1-GST (alkaline phosphatase activity); details: SIRPα-GST coated 2 μg/ml, CD47-AP 1-2 μg/ml
T1 construct: Microtiter plates were coated with SIRPα1 extracellular domain fusion protein (SIRPα1-GST, 1 μg/ml) for 2 hr; A construct consisting of the extracellular domain of human CD47 fused to the catalytic domain of human placental AP; made in house
Experimental: (§1) FIG. 2C (right panel) is a bar graph that illustrates CD47-AP specifically binds to SIRPα-GST fusion protein but not SIRPβ-GST. In this panel, microtiter plates were coated with either SIRPα-GST or highly similar SIRPβ-GST (10 μg/ml) followed by blocking with BSA. To each well was then added recombinant CD47-AP followed by washing. Bound CD47-AP was then detected by assay for alkaline phosphatase after addition of appropriate substrate.
FIGS. 6A-6C are graphs that illustrate the effects of synthetic peptides on CD47-SIRPα binding. FIG. 6A illustrates the effect of peptide C5/D5.1 on CD47-SIRPα binding. […] After blocking, CD47-AP was added in the absence or presence of synthetic peptides C5/D5.1 and control peptides C5/D5.4, C5/D5.11 and C5/D5.12 (used as 1 mM each). “*” p<0.01. CD47-AP binding was then detected by assay of alkaline phosphatase activity and normalized with respect to binding in the absence of any peptide (CD47-AP only). FIG. 6B illustrates the effect of dose-dependent inhibition of CD47-SIRPα1 binding by peptide C5/D5.1 performed as in FIG. 6A but with increasing concentrations of peptide as indicated. […] Binding of these proteins were detected by a goat anti-GST antibody followed by peroxidase conjugated anti-goat secondary (for detecting SIRPα1-GST) or directly developed for alkaline phosphatase activity (for detecting CD47-AP). […]

[3] = biological target: T2, SIRPβ-GST (Homo sapiens, UniProt O00241); assay: CD47-AP binding to SIRPβ-GST coated wells; details: FIG. 2C
T2 construct: The extracellular domain of SIRPα1, SIRPβ1 and GST fusion proteins were produced after transfected into 293E cells; made in house; host or cells: 293E cells
Experimental: as §1
Since the above results and those of others (Jiang, et al J. Biol. Chem., 274: 559, Seiffert, et al., Blood, 94: 3633, Han, et al., J. Biol. Chem., 275: 37984, Oldenborg, et al., Science, 288: 2051) strongly implicate CD47 as a membrane receptor for SIRPα, experiments were performed to test the direct binding of the IgV loop of CD47 to SIRPα (FIG. 2B). A recombinant CD47 IgV loop fused to alkaline phosphatase (CD47-AP) was constructed as detailed in the methods and expressed in mammalian (CHO) cells in order to allow for proper folding and glycosylation. The expressed CD47-AP fusion protein was then purified by immunoaffinity chromatography using anti CD47 mAb PF3.1-Sepharose. The structure of CD47 IgV domain in the purified CD47-AP was further tested for the ability to react with multiple functionally blocking anti-CD47 extracellular domain-reactive mAbs (Liu, et al., J. Biol. Chem., 276: 40156). […]

[4] = test system: mAb C5/D5; assay: Peptide competition of phage binding to C5/D5 by ELISA; details: up to 10 mM
Experimental: To mimic the possible constrained structure in phage, in vitro oxidation was performed after peptide synthesis to introduce disulfide bonds between Cysteine residues in these peptides. […] There are total four tryptophan (W) residues in CD47. W2 is part of the signal peptide and therefore is not present in the mature protein. W58 is present in the N-terminus extracellular IgV-like domain of CD47 and is conserved among many IgV super family members. W136 is also located in the putative extracellular domain whereas W157 is thought to be in a transmembrane region of the protein (Lindberg, et al., J. Cell Biol., 123(2): 485-96, 1993). Amino acids Arginine and Valine (RV/L), present in many selected CL10 and LL9 phages are adjacent in CD47 at amino acid position 132-133, two amino acids upstream from W136. Both amino acids R and V are also found close to W58. Thus, the C5/D5-binding sequence on CD47 is likely to comprise several distant residues brought into proximity by the folding of the protein.
Antibody phage binding assays were performed in microtiter plate wells (Limbro-Titertek, Flow Laboratories) which were coated with relevant antibodies (20 μg/ml) for two hours at room temperature. All subsequent incubations were performed at room temperature. […] Microtiter wells were then analyzed in a microtiter plate reader at 405 nanometers (nm).

T1 sequence (P78324 31-373 limits assumed): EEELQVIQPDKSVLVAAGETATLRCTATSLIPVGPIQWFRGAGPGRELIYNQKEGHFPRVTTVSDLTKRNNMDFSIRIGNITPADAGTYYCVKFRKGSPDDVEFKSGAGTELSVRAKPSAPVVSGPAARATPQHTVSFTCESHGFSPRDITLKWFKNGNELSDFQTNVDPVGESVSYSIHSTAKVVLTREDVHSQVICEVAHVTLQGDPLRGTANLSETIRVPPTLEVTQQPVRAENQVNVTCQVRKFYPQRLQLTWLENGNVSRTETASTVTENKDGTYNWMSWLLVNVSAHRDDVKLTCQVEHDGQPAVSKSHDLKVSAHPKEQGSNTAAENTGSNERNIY
T2 sequence (O00241 30-371 limits assumed): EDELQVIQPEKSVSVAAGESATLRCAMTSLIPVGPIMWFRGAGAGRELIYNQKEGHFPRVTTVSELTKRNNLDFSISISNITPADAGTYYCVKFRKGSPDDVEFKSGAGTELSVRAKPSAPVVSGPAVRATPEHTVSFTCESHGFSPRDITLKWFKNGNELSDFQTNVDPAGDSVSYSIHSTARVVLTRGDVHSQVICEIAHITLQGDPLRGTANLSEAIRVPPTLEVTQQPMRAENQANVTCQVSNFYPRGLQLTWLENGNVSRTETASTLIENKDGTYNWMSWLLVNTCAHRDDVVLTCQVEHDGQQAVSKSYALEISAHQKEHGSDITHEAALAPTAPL

solubility [1] [mM] | Compound | other results
10 (≈ 13.8 mg/mL) | CC[C@H](C)[C@@H]1NC(=O)[C@H](C(C)C)NC(=O)[C@H](CCCNC(=N)N)NC(=O)[C@H](CCC(=O)O)NC(=O)[C@@H](N)CSSC[C@@H](C(=O)O)NC(=O)[C@H](CCCNC(=N)N)NC(=O)[C@H](C(C)C)NC(=O)[C@H](Cc2c[nH]c3ccccc23)NC(=O)CNC(=O)[C@H]([C@@H](C)O)NC(=O)CNC1=O [C5/D5.1, CERVIGTGWVRC] (H-CERVIGTGWVRC-OH; disulfide 1-12; N-terminus and C-terminus assumed) | 
10 (≈ 11.7 mg/mL) | CC[C@H](C)[C@H](NC(=O)[C@@H](NC(=O)[C@H](CCCNC(=N)N)NC(=O)[C@@H](N)CCC(=O)O)C(C)C)C(=O)NCC(=O)N[C@H](C(=O)NCC(=O)N[C@@H](Cc1c[nH]c2ccccc12)C(=O)N[C@H](C(=O)N[C@@H](CCCNC(=N)N)C(=O)O)C(C)C)[C@@H](C)O [C5/D5.4, ERVIGTGWVR] (H-ERVIGTGWVR-OH; N-terminus and C-terminus assumed) | 
2 (≈ 2.75 mg/mL) | CC[C@H](C)[C@@H]1NC(=O)[C@H](C(C)C)NC(=O)CNC(=O)[C@H](CCCNC(=N)N)NC(=O)[C@H](Cc2c[nH]c3ccccc23)NC(=O)[C@H]([C@@H](C)O)NC(=O)[C@H](CCCNC(=N)N)NC(=O)[C@H](C(C)C)NC(=O)CNC(=O)[C@@H](N)CSSC[C@@H](C(=O)O)NC(=O)[C@H](CCC(=O)O)NC1=O [C5/D5.5, CGVRTWRGVIEC] (H-CGVRTWRGVIEC-OH; disulfide 1-12; N-terminus and C-terminus assumed) | solubility (in words) [1]: limited solubility
10 (≈ 13.8 mg/mL) | CC[C@H](C)[C@@H]1NC(=O)[C@H](C(C)C)NC(=O)[C@H](CCCNC(=N)N)NC(=O)[C@H](Cc2c[nH]cn2)NC(=O)[C@@H](N)CSSC[C@@H](C(=O)O)NC(=O)[C@H](CCCNC(=N)N)NC(=O)[C@H](C(C)C)NC(=O)[C@H](Cc2c[nH]c3ccccc23)NC(=O)CNC(=O)[C@H]([C@@H](C)O)NC(=O)CNC1=O [C5/D5.11, CHRVIGTGWVRC] (H-CHRVIGTGWVRC-OH; disulfide 1-12; N-terminus and C-terminus assumed) | 
1 (≈ 1.4 mg/mL) | CC(C)[C@@H]1NC(=O)[C@H](Cc2c[nH]c3ccccc23)NC(=O)CNC(=O)[C@H](Cc2c[nH]cn2)NC(=O)CNC(=O)[C@@H]2CCCN2C(=O)[C@H](C(C)C)NC(=O)[C@H](CCCNC(=N)N)NC(=O)[C@H](Cc2c[nH]cn2)NC(=O)[C@@H](N)CSSC[C@@H](C(=O)O)NC(=O)[C@H](CCCNC(=N)N)NC1=O [C5/D5.12, CHRVPGHGWVRC] (H-CHRVPGHGWVRC-OH; disulfide 1-12; N-terminus and C-terminus assumed) | 
 | CD47-AP: recombinant CD47 IgV loop fused to alkaline phosphatase | binding of AP fusion protein to SIRPα-GST (AP activity, OD405) [2]: bound; binding of CD47-AP to SIRPβ-GST [3]: lack of binding
 | CRRVIGRVGCGC (listed as Homo sapiens) [C5/D5.3] | inhibitory effect of peptide on phage binding to C5/D5 [4]: no inhibitory effects
